How the values were obtained:
Type in all cases: biochemical
[1] = target: T1, Ubiquitin C-terminal Hydrolase L1 (UCHL1) (Homo sapiens, UniProt P09936); assay: inhibition IC50 of UCHL1
T1 sequence (P09936 1-220): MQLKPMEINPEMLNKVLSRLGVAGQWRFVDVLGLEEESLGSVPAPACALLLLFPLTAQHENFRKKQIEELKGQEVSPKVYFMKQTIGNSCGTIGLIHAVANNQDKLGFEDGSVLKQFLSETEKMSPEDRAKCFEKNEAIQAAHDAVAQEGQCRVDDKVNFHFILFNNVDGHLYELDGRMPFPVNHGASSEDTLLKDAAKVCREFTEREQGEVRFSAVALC

UCHL3 [2] = target: T2, UCHL3 (Homo sapiens, UniProt P15374); assay: Ub-Rho cleavage assay, purified enzyme
T2 sequence (P15374 1-230): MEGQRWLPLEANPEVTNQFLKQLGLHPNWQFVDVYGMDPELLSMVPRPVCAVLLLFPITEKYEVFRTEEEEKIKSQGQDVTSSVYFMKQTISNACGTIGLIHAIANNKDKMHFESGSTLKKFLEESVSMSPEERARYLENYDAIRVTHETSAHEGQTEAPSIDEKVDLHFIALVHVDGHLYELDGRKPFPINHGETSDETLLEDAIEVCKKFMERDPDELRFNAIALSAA

UCHL3 [3] = target: T2, UCHL3; assay: Ub-Rho cleavage assay, purified enzyme, […] min preincubation

Row | IC50 [1] | IC50 (UCHL3 [2]) | IC50 (UCHL3 [3]) | SMILES
1 | 6.4 µM | 5.5 µM |  | C#CCCn1cc(-c2cccc3c2CCN3C(=O)[C@@H]2CCCN2C#N)c(C(F)(F)F)n1 [compound 2, (S)-2-(4-(1-(but-3-yn-1-yl)-3-(trifluoromethyl)-1H-pyrazol-4-yl)indoline-1-carbonyl)pyrrolidine-1-carbonitrile]
2 |  |  | 6.4 µM | N#CN1CCC[C@H]1C(=O)N1CCc2c(-c3cn[nH]c3C(F)(F)F)cccc21 [compound 1, (S)-2-(4-(5-(trifluoromethyl)-1H-pyrazol-4-yl)indoline-1-carbonyl)pyrrolidine-1-carbonitrile]

Reference: publication PMC7042063 (Chembiochem : a European journal of chemical biology, 2019)
